From patent publication US20260374739A1, “SMALL MOLECULAR WEIGHT CHEMICAL COMPOUND TO ANTAGONIZE EPH-EPHRIN TETRAMERIZATION AND INHIBIT BIDIRECTIONAL SIGNALING” (THE BOARD OF REGENTS OF THE UNIVERSITY OF TEXAS SYSTEM, priority 2022, published 2026)
Entries after “also recorded” stand apart in the source; their conditions may differ.

Experiments:
[1] = test system: EphB2-His-Fc; experiment: single-protein counter ELISA; settings: 5 μM
Method: The 32 hits were then subjected to ELISA in which EphB1-Fc was first immobilized in 96 well Protein A plates, then soluble EB2-His was added with hit compound in triplicate, again at 5 μM. After 2 hr at RT to allow EB2-His binding to EphB1-Fc, wells were washed, incubated with nickel-activated horseradish peroxidase (HisProbe-HRP) to detect bound EB2-His protein, washed, and then incubated with ELISA Pico Chemiluminescent Substrate (both from Thermo-Fisher) before being read in a luminometer. A single-protein counter ELISA using the dual-tagged EphB2-His-Fc ectodomain protein was also run. […] For simplicity, we call this compound A20.

[2] = test system: EphB2, Cos1 cells; experiment: ligand:receptor cluster (spot) formation in Cos1 cells, immunofluorescence; format: cell-based; settings: A20 40 μM; listed as A20
Method: FIG. 14 depicts representative fluorescent images and quantification showing that Cos1 cells exposed to pre-clustered EB2-Fc binds to EphB2 forming spots on the cell (green) that also contain phosphotyrosine (red, arrows).
To assess if A20 would reduce the ability of EphrinB2 to stimulate activation of the EphB tyrosine kinase domain in live cells, Cos1 cells that express endogenous EphB2 were exposed to pre-clustered EB2-Fc ectodomains in the presence or absence of A20 for 30 min. […] Stimulated cells were fixed on the coverslip and subjected to immunofluorescence (IF) with anti-Fc antibodies to detect ligand protein bound to receptor, which leads to formation of circular Eph-Ephrin tetramers that then cluster into large obvious spots on the cell surface by lateral migration through the plasma membrane and also contain anti-phosphotyrosine signal indicating activation of the receptor's kinase domain.

[3] = target: T1, EphrinB2-EphB4 (Homo sapiens, UniProt P54760); experiment: Octet, immobilized human EphrinB2 binding to 50 nM soluble human EphB4
T1 construct: soluble human EphB1-His, EphB2-His, and EphB4-His ectodomains; commercially available human EphrinB1-Fc (EB1), EphrinB2-Fc (EB2), and EphrinB3-Fc (EB3) ectodomain proteins; purchased
T1 sequence (P54760 16-539 limits assumed): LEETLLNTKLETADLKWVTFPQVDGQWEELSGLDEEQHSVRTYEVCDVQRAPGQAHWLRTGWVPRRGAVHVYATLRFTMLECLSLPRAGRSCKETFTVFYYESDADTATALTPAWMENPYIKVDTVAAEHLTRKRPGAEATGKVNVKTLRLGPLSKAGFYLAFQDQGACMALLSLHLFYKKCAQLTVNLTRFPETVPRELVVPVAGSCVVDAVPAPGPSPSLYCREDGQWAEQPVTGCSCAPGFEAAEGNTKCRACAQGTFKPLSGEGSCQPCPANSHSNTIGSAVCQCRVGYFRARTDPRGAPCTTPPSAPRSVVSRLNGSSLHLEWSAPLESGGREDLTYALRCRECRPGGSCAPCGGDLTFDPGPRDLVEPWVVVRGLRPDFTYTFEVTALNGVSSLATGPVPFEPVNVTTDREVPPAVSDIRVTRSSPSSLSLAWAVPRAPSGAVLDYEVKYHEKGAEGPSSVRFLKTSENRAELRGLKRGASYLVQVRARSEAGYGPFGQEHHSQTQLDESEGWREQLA
Method: Studies were conducted to confirm that A20 chemicals can effectively target the human Eph/Ephrin proteins. Octet system was used to first characterize the biophysical interactions of the human B class Eph and Ephrin proteins, and then was tested to assess how A20 may disrupt the interactions. Since the human and rodent proteins are highly conserved, and essentially identical, with EphB2 sharing 99.5% identity between human and mouse, with only 5 of ~1,000 amino acids different, any species-specific differences were not anticipated. Therefore, commercially available human EphrinB1-Fc (EB1), EphrinB2-Fc (EB2), and EphrinB3-Fc (EB3) ectodomain proteins were sparsely immobilized onto biosensors and then exposed to 50 nM of soluble human EphB1-His, EphB2-His, and EphB4-His ectodomains for 800 sec association and 1,000 sec dissociation steps with a total of nine different interactions analyzed. In the absence of A20 chemical, the immobilized human EphrinB proteins bound to their appropriate human EphB target proteins; with EphrinB1 only bound EphB1 and EphB2, EphrinB2 bound all three EphB1, EphB2, and EphB4, and EphrinB3 only bound EphB1 and EphB2 (FIG. 19A-19B). […]

Compound: Oc1c(Br)cc(CN2CCOCC2)c2cccnc12 [Compound 5, 7-bromo-5-(morpholinomethyl)quinolin-8-ol]
- counter ELISA signal [1]: had no effect on signal in the single-protein ELISA
- ligand:receptor clusters on cell [2]: significantly reduced the ability of pre-clustered EB2-Fc to bind/cluster the EphB2 receptor to spots on the cell; also recorded: reduced the number of ligand: receptor clusters per cell
- absolute IC50 ([3]; A20 salt up to 100 μM): absence of an absolute IC50
- association slope ([3]; in presence of A20, role: inhibitor, 5° without): 3 °
